In this assay the test system is Acinetobacter baumannii ATCC 17961. As to the kind of experiment: Antimicrobial susceptibility testing: 90% growth inhibitory concentration (IC90) determination. The format is cell-based. Particulars: ATCC17961, Acinetobacter baumannii ATCC 17961, Iso-Sensitest broth, read-out: ATCC 17961 IC90. A digest of the protocol:
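Growth was followed kinetically by OD600 at 20-min intervals for 16 h at 35±2 °C, with ~5×10^5 CFU/ml in Iso-Sensitest broth. Compounds were tested as twofold dilutions (e.g. 50–0.097 μM final). The concentration giving 90% inhibition of log-phase growth was reported.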

Structures can show the parent of a compound that is named as a salt.

Turning to `CCc1cc(NC(=O)c2ncc(-c3cn(CC#N)nc3C(F)(F)F)n2C)ccc1C(=O)N1CCN(C(=O)N2CC[C@H](C)[C@H](N)C2)CC1` (racemic) [Example 137, 5-[1-(cyanomethyl)-3-(trifluoromethyl)pyrazol-4-yl]-N-[3-ethyl-4-[4-[rac-(3R,4R)-3-amino-4-methylpiperidine-1-carbonyl]piperazine-1-carbonyl]phenyl]-1-methylimidazole-2-carboxamide;formic acid], the IC90 (as a rule, the concentration at which the effect reaches the 90% level) worked out at 845 nM.
For `C#CCn1cc(-c2cnc(C(=O)Nc3ccc(C(=O)NCCOCC(C)(C)N)c(CC)c3)n2C)c(C(F)(F)F)n1` [Example 222, N-[4-[2-(2-amino-2-methyl-propoxy)ethylcarbamoyl]-3-ethyl-phenyl]-1-methyl-5-[1-prop-2-ynyl-3-(trifluoromethyl)pyrazol-4-yl]imidazole-2-carboxamide; formic acid] the value was 250 nM; for `Cn1c(-c2cn(C3CC3(F)F)nc2C(F)(F)F)cnc1C(=O)Nc1ccc(C(=O)NCC2CC3CNCC3C2)c(Cl)c1` (stereo not shown) [Example 196, N-(3-chloro-4-(((octahydrocyclopenta[c]pyrrol-5-yl)methyl)carbamoyl)phenyl)-5-(1-(2,2-difluorocyclopropyl)-3-(trifluoromethyl)-1H-pyrazol-4-yl)-1-methyl-1H-imidazole-2-carboxamide formate], 202 nM.
For `Cn1c(-c2c[nH]nc2C(F)(F)F)cnc1C(=O)Nc1ccc(C(=O)N2CCN(C(=O)C3CCNCC3)CC2)c(Cl)c1` [Example 1, N-(3-chloro-4-(4-(piperidine-4-carbonyl)piperazine-1-carbonyl)phenyl)-1-methyl-5-(3-(trifluoromethyl)-1H-pyrazol-4-yl)-1H-imidazole-2-carboxamide hydrochloride] the value was 525 nM; for `CCc1cc(NC(=O)c2ncc(-c3cn(CC#N)nc3C(F)(F)F)n2C)ccc1C(=O)N1CCN(C(=O)N2CCCC(N)C2)CC1` (stereo not shown) [Example 133, N-[4-[4-(3-aminopiperidine-1-carbonyl)piperazine-1-carbonyl]-3-ethylphenyl]-5-[1-(cyanomethyl)-3-(trifluoromethyl)pyrazol-4-yl]-1-methylimidazole-2-carboxamide;formic acid], 775 nM.
For `C=CCn1cc(-c2cnc(C(=O)Nc3ccc(C(=O)N[C@H]4[C@@H]5CN(C(=O)N[C@@H]6CNC[C@H]6O)C[C@@H]54)c(Cl)c3)n2C)c(C(F)(F)F)n1` [Example 387, (1R,5S,6s)-6-(4-(5-(1-allyl-3-(trifluoromethyl)-1H-pyrazol-4-yl)-1-methyl-1H-imidazole-2-carboxamido)-2-chlorobenzamido)-N-((3R,4R)-4-hydroxypyrrolidin-3-yl)-3-azabicyclo[3.1.0]hexane-3-carboxamide formate] the value was 130 nM; for `CN1CCN(C(=O)N2CCN(C(=O)c3ccc(NC(=O)c4ncc(-c5cn(C6CC6)nc5C(F)(F)F)n4C)cc3Cl)CC2)CC1` [Example 297, N-(3-chloro-4-(4-(4-methylpiperazine-1-carbonyl)piperazine-1-carbonyl)phenyl)-5-(1-cyclopropyl-3-(trifluoromethyl)-1H-pyrazol-4-yl)-1-methyl-1H-imidazole-2-carboxamide], 365 nM.
As to `Cn1c(-c2cn(C3CC3)nc2C(F)(F)F)cnc1C(=O)Nc1ccc(C(=O)NCCCCCCN)c(Cl)c1` [Example 187, N-(4-((6-aminohexyl)carbamoyl)-3-chlorophenyl)-5-(1-cyclopropyl-3-(trifluoromethyl)-1H-pyrazol-4-yl)-1-methyl-1H-imidazole-2-carboxamide hydrochloride], the IC90 came out at 151 nM.
For `Cn1c(-c2cn(C3CC3(F)F)nc2C(F)(F)F)cnc1C(=O)Nc1ccc(C(=O)N[C@H]2C[C@H]3CC[C@@H](C2)N3)c(Cl)c1` (mixture of isomers) [Example 346, rac-N-(4-(((1R,3r,5S)-8-azabicyclo[3.2.1]octan-3-yl)carbamoyl)-3-chlorophenyl)-5-(1-(2,2-difluorocyclopropyl)-3-(trifluoromethyl)-1H-pyrazol-4-yl)-1-methyl-1H-imidazole-2-carboxamide formate] the value was 446 nM; for `Cn1c(-c2cn(CC#N)nc2C(F)(F)F)cnc1C(=O)Nc1ccc(C(=O)N2CCN(C(=O)N[C@H]3CCNC3)CC2)c(Cl)c1` [Example 143, 4-[2-chloro-4-[[5-[1-(cyanomethyl)-3-(trifluoromethyl)pyrazol-4-yl]-1-methylimidazole-2-carbonyl]amino]benzoyl]-N-[(3S)-pyrrolidin-3-yl]piperazine-1-carboxamide;formic acid], 426 nM; for `Cn1c(-c2cn(C3CC3(F)F)nc2C(F)(F)F)cnc1C(=O)Nc1ccc(C(=O)NCC2CC3CN(C(=O)N[C@H]4CNC[C@@H]4O)CC3C2)c(Cl)c1` (mixture of isomers) [Example 310, rac-5-((2-chloro-4-(5-(1-(2,2-difluorocyclopropyl)-3-(trifluoromethyl)-1H-pyrazol-4-yl)-1-methyl-1H-imidazole-2-carboxamido)benzamido)methyl)-N-((3R,4R)-4-hydroxypyrrolidin-3-yl)hexahydrocyclopenta[c]pyrrole-2(1H)-carboxamide formate], 379 nM.
For `Cn1c(-c2cn(C3CC3)nc2C(F)(F)F)cnc1C(=O)Nc1ccc(C(=O)N2CCN(C(=O)[C@@H]3CCC[C@@H](N)C3)CC2)c(Cl)c1` [Example 287, N-(4-(4-((1R,3R)-3-aminocyclohexane-1-carbonyl)piperazine-1-carbonyl)-3-chlorophenyl)-5-(1-cyclopropyl-3-(trifluoromethyl)-1H-pyrazol-4-yl)-1-methyl-1H-imidazole-2-carboxamide hydrochloride] the value was 352 nM; for `Cn1c(-c2cn(C3CC4(CC4)C3)nc2C(F)(F)F)cnc1C(=O)Nc1ccc(C(=O)N2CCN(C(=O)C3CCNCC3)CC2)c(Cl)c1` [Example 108, N-[3-chloro-4-[4-(piperidine-4-carbonyl)piperazine-1-carbonyl]phenyl]-1-methyl-5-[1-spiro[2.3]hexan-5-yl-3-(trifluoromethyl)pyrazol-4-yl]imidazole-2-carboxamide;hydrochloride], 248 nM.
`CCc1cc(NC(=O)c2ncc(-c3cn(CC#N)nc3C(F)(F)F)n2C)ccc1C(=O)N1CCN(C(=O)N2CC3CC2CN3)CC1` (stereo not shown) [Example 141, 5-[1-(cyanomethyl)-3-(trifluoromethyl)pyrazol-4-yl]-N-[4-[4-(2,5-diazabicyclo[2.2.1]heptane-2-carbonyl)piperazine-1-carbonyl]-3-ethylphenyl]-1-methylimidazole-2-carboxamide;formic acid]: the 90% effect concentration (IC90) was found to be 887 nM.
For `CCc1cc(NC(=O)c2ncc(-c3cn(CC(F)F)nc3C(F)(F)F)n2C)ccc1C(=O)NCCCCCN` [Example 356, N-(4-((5-aminopentyl)carbamoyl)-3-ethylphenyl)-5-(1-(2,2-difluoroethyl)-3-(trifluoromethyl)-1H-pyrazol-4-yl)-1-methyl-1H-imidazole-2-carboxamide hydrochloride] the value was 466 nM; for `Cn1c(-c2cn(CC(F)F)nc2C(F)(F)F)cnc1C(=O)Nc1ccc(C(=O)N2CCNCC2)c(Cl)c1` [Example 336, N-(3-chloro-4-(piperazine-1-carbonyl)phenyl)-5-(1-(2,2-difluoroethyl)-3-(trifluoromethyl)-1H-pyrazol-4-yl)-1-methyl-1H-imidazole-2-carboxamide formate], 426 nM; for `CCc1cc(NC(=O)c2ncc(-c3cn(Cc4cccnc4)nc3C(F)(F)F)n2C)ccc1C(=O)N1CCN(C(=O)NCC2(O)CNC2)CC1` [Example 162, 4-[2-ethyl-4-[[1-methyl-5-[1-(pyridin-3-ylmethyl)-3-(trifluoromethyl)pyrazol-4-yl]imidazole-2-carbonyl]amino]benzoyl]-N-[(3-hydroxyazetidin-3-yl)methyl]piperazine-1-carboxamide;formic acid], 1470 nM.
For `CN(C)C(=O)Cn1cc(-c2cnc(C(=O)Nc3ccc(C(=O)N4CCN(C(=O)C5CCNCC5)CC4)c(Cl)c3)n2C)c(C(F)(F)F)n1` [Example 21, N-(3-chloro-4-(4-(piperidine-4-carbonyl)piperazine-1-carbonyl)phenyl)-5-(1-(2-(dimethylamino)-2-oxoethyl)-3-(trifluoromethyl)-1H-pyrazol-4-yl)-1-methyl-1H-imidazole-2-carboxamide formate] the value was 1870 nM; for `CSc1ccc(NC(=O)c2ncc(-c3cn(CC(F)F)nc3C(F)(F)F)n2C)cc1C` [Example 308, 5-[1-(2,2-difluoroethyl)-3-(trifluoromethyl)pyrazol-4-yl]-1-methyl-N-(3-methyl-4-methylsulfanyl-phenyl)imidazole-2-carboxamide], 377 nM; for `C#CCn1cc(-c2cnc(C(=O)Nc3ccc(C(=O)N4CCN(C(=O)C5CCNCC5)CC4)c(F)c3)n2C)c(C(F)(F)F)n1` [Example 261, N-(3-fluoro-4-(4-(piperidine-4-carbonyl)piperazine-1-carbonyl)phenyl)-1-methyl-5-(1-(prop-2-yn-1-yl)-3-(trifluoromethyl)-1H-pyrazol-4-yl)-1H-imidazole-2-carboxamide], 323 nM.
For `Cn1c(-c2cn(CC#N)nc2C(F)(F)F)cnc1C(=O)Nc1ccc(C(=O)N2CCN(C(=O)C3(O)CCNCC3)CC2)c(Cl)c1` [Example 60, N-[3-Chloro-4-[4-(4-hydroxypiperidine-4-carbonyl)piperazine-1-carbonyl]phenyl]-5-[1-(cyanomethyl)-3-(trifluoromethyl)pyrazol-4-yl]-1-methyl-imidazole-2-carboxamide; Formic Acid] the value was 468 nM; for `Cn1c(-c2cn(CCC#N)nc2C(F)(F)F)cnc1C(=O)Nc1ccc(C(=O)N2CCN(C(=O)C3CCNCC3)CC2)c(Cl)c1` [Example 5, N-(3-chloro-4-(4-(piperidine-4-carbonyl)piperazine-1-carbonyl)phenyl)-5-(1-(2-cyanoethyl)-3-(trifluoromethyl)-1H-pyrazol-4-yl)-1-methyl-1H-imidazole-2-carboxamide], 1040 nM.

The record behind these values is US11390604B2 (Hoffmann-La Roche Inc., priority 2019, dated 2022).
